≈ marks a conversion by molar mass, not a printed value.
What was measured:
[1] = Antioxidant activity assessed as DPPH radical scavenging activity incubated under dark condition for 30 mins; format: functional
HCT-15 = test: Cytotoxicity against human HCT15 cells assessed as reduction in cell viability after 24 hrs by MTT assay; format: functional, cell-based; details: HCT-15, 24 h

| Structure (SMILES) | IC50 [1] [µg/mL] | IC50 (HCT-15) [µM] |
| --- | --- | --- |
| Cc1ccc2c3c([nH]c2c1)C1=C(C#N)C(=O)NC1(C1C(=O)c2cccc4cccc1c24)CC3 (configuration not stated) | 28.251 (≈ 65.8 µM) | 31.6 |
| Cc1ccc2[nH]c3c(c2c1)CCC1(C2c4ccccc4-c4nc5ccccc5nc42)NC(=O)C(C#N)=C31 (configuration not stated) | 42.31 (≈ 88.2 µM) | 35.9 |
| Cc1ccc2c3c([nH]c2c1)C1=C(C#N)C(=O)NC1(C1C(=O)Nc2ccc(Cl)cc21)CC3 (configuration not stated) | 13.931 (≈ 32.5 µM) | 15.8 |
| Cc1ccc2c3c([nH]c2c1)C1=C(C#N)C(=O)NC1(C1c2ccccc2-c2nc4cc(C)c(C)cc4nc21)CC3 (configuration not stated) | 40.037 (≈ 78.9 µM) | 50.2 |
| Cc1cccc2c3c([nH]c12)C1=C(C#N)C(=O)NC1(C1c2ccccc2-c2nc4ccccc4nc21)CC3 (configuration not stated) | 33.936 (≈ 70.8 µM) | 23.7 |

Second part, led by results:

| IC50 [1] [µg/mL] | Structure (SMILES) | IC50 (HCT-15) [µM] |
| --- | --- | --- |
| 41.934 (≈ 106 µM) | Cc1ccc2[nH]c3c(c2c1)CCC1(C2C(=O)Nc4ccccc42)NC(=O)C(C#N)=C31 (configuration not stated) | 47.4 |
| 28.918 (≈ 73.3 µM) | Cc1cccc2c3c([nH]c12)C1=C(C#N)C(=O)NC1(C1C(=O)Nc2ccccc21)CC3 (configuration not stated) | 31.6 |
| > 100 | Cc1cccc2c3c([nH]c12)C1=C(C#N)C(=O)NC1(C1C(=O)c2cccc4cccc1c24)CC3 (configuration not stated) | 46.5 |
| 13.228 (≈ 75.1 µM) | O=C1O[C@H]([C@@H](O)CO)C(O)=C1O [ASCORBIC ACID] | – |

From ChEMBL document CHEMBL4196095, “Design and synthesis of novel pyrrolo[2,3-a]carbazoles: 7-Chloro-2-oxo-3a-(2'-oxo-2',3'-dihydro-1'H-indol-3'-yl)-2,3,3a,4,5,10-hexahydro-pyrrolo[3,2-a]carbazole-1-carbonitrile as an efficient anticancer agent” (Eur J Med Chem, 2018)
